From patent publication US20190315823A1, “SMALL CATIONIC ANTI-BIOFILM AND IDR PEPTIDES” (priority 2013, published 2019)
Ends that are not written are not given here.

What was measured:
[1] = system: LPS-stimulated human peripheral blood mononuclear cells (IL1-β); type: cell-based; settings: Table 12, cells stimulated with 10 ng/ml LPS; for IL1β Production: LPS alone 1313 (HH2 derivatives), 1927 (1018 derivatives), 2455 (1002 and hybrid peptides) pg/ml
[2] = system: methicillin resistant Staphylococcus aureus (MRSA) biofilm; settings: approximate peptide concentration […] (around 3 μg/ml); compared to untreated samples
In short: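 Peptide was present from inoculation onward, with bacteria seeded at 1/100 from overnight cultures into BM2 biofilm medium or Luria Broth. Crystal violet staining of surface-attached cells (A595) quantified biofilm reduction at 22–46 h. K. pneumoniae was additionally screened in a real-time Bioflux flow device for some peptides.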

[3] = system: human peripheral blood mononuclear cells (MCP-1); test: SPOT-synthesized derivative screen: production of chemokine MCP-1; type: cell-based; settings: Table 12, No LPS, human PBMC, peptide at ~18-24 μM; for MCP1: background subtracted 139 (HH2 derivatives), 170 (1018 derivatives), 242 (1002 and hybrid peptides) pg/ml
In short: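 MCP-1 was quantified by capture ELISA in cleared culture supernatants of treated human peripheral blood mononuclear cells. Cells came from heparinized volunteer blood via Ficoll gradient and were seeded at 0.75 to 1×10^6 cells/ml (37 °C, 5% CO2).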

HH2-I7: single substituted HH2 peptide (VQLRIRIAVIRA-NH2)
Fold change in IL1β relative to no peptide LPS stimulated cells [1]: 0.68 | IL1β Production [1]: 897 pg/mL | % Biofilm inhibition [2]: 69% | Fold increase in MCP1 cf. untreated cells [3]: 8.8 | MCP1 [3]: 1332 pg/mL

1002-V9: single substituted 1002 peptide (VQRWLIVWVIRK-NH2) [Peptide 1002-V9]
Fold change in IL1β relative to no peptide LPS stimulated cells [1]: 0.05 | IL1β Production [1]: 134 pg/mL | % Biofilm inhibition [2]: 47% | Fold increase in MCP1 cf. untreated cells [3]: 1.5 | MCP1 [3]: 131.8 pg/mL

1018-G9: single substituted 1018 peptide (VRLIVAVRGWRR-NH2) [Peptide 1018-G9]
Fold change in IL1β relative to no peptide LPS stimulated cells [1]: 1.13 | IL1β Production [1]: 1481 pg/mL | % Biofilm inhibition [2]: 67% | Fold increase in MCP1 cf. untreated cells [3]: 0.9 | MCP1 [3]: -17 pg/mL

HH2-L9: single substituted HH2 peptide (VQLRIRVALIRA-NH2)
Fold change in IL1β relative to no peptide LPS stimulated cells [1]: 1.04 | IL1β Production [1]: 1359 pg/mL | % Biofilm inhibition [2]: 65% | Fold increase in MCP1 cf. untreated cells [3]: 10 | MCP1 [3]: 1527 pg/mL

1002-L8: single substituted 1002 peptide (VQRWLIVLRIRK-NH2) [Peptide 1002-L8]
Fold change in IL1β relative to no peptide LPS stimulated cells [1]: 0.06 | IL1β Production [1]: 135 pg/mL | % Biofilm inhibition [2]: 57% | Fold increase in MCP1 cf. untreated cells [3]: 10.8 | MCP1 [3]: 2367.1 pg/mL

1018-G4: single substituted 1018 peptide (VRLGVAVRIWRR-NH2) [Peptide 1018-G4]
Fold change in IL1β relative to no peptide LPS stimulated cells [1]: 0.39 | IL1β Production [1]: 511 pg/mL | % Biofilm inhibition [2]: 63% | Fold increase in MCP1 cf. untreated cells [3]: 1.2 | MCP1 [3]: 32 pg/mL

HH2-L1: single substituted HH2 peptide (LQLRIRVAVIRA-NH2)
Fold change in IL1β relative to no peptide LPS stimulated cells [1]: 0.94 | IL1β Production [1]: 1234 pg/mL | % Biofilm inhibition [2]: 72% | Fold increase in MCP1 cf. untreated cells [3]: 4.8 | MCP1 [3]: 654 pg/mL

1018-W5: single substituted 1018 peptide (VRLIWAVRIWRR-NH2) [Peptide 1018-W5]
Fold change in IL1β relative to no peptide LPS stimulated cells [1]: 0.10 | IL1β Production [1]: 127 pg/mL | % Biofilm inhibition [2]: 55% | Fold increase in MCP1 cf. untreated cells [3]: 0.8 | MCP1 [3]: -28 pg/mL

1018-L7: single substituted 1018 peptide (VRLIVALRIWRR-NH2) [Peptide 1018-L7]
Fold change in IL1β relative to no peptide LPS stimulated cells [1]: 0.10 | IL1β Production [1]: 132 pg/mL | % Biofilm inhibition [2]: 72% | Fold increase in MCP1 cf. untreated cells [3]: 0.9 | MCP1 [3]: -10 pg/mL

1018-I7: single substituted 1018 peptide (VRLIVAIRIWRR-NH2) [Peptide 1018-I7]
Fold change in IL1β relative to no peptide LPS stimulated cells [1]: 0.10 | IL1β Production [1]: 127 pg/mL | % Biofilm inhibition [2]: 63% | Fold increase in MCP1 cf. untreated cells [3]: 5.2 | MCP1 [3]: 714 pg/mL

HH2-A4: single substituted HH2 peptide (VQLAIRVAVIRA-NH2)
Fold change in IL1β relative to no peptide LPS stimulated cells [1]: 1.52 | IL1β Production [1]: 2000 pg/mL | % Biofilm inhibition [2]: 42% | Fold increase in MCP1 cf. untreated cells [3]: 5.0 | MCP1 [3]: 672 pg/mL

1018-G5: single substituted 1018 peptide (VRLIGAVRIWRR-NH2) [Peptide 1018-G5]
Fold change in IL1β relative to no peptide LPS stimulated cells [1]: 1.23 | IL1β Production [1]: 1620 pg/mL | % Biofilm inhibition [2]: 38% | Fold increase in MCP1 cf. untreated cells [3]: 13 | MCP1 [3]: 2090 pg/mL

1002-L7: single substituted 1002 peptide (VQRWLILWRIRK-NH2) [Peptide 1002-L7]
Fold change in IL1β relative to no peptide LPS stimulated cells [1]: 0.05 | IL1β Production [1]: 127 pg/mL | % Biofilm inhibition [2]: 57% | Fold increase in MCP1 cf. untreated cells [3]: 1.8 | MCP1 [3]: 199.1 pg/mL

HH2-K8: single substituted HH2 peptide (VQLRIRVKVIRA-NH2)
Fold change in IL1β relative to no peptide LPS stimulated cells [1]: 0.65 | IL1β Production [1]: 851 pg/mL | % Biofilm inhibition [2]: 73% | Fold increase in MCP1 cf. untreated cells [3]: 9.8 | MCP1 [3]: 1501 pg/mL

1002-K10: single substituted 1002 peptide (VQRWLIVWRKRK-NH2) [Peptide 1002-K10]
Fold change in IL1β relative to no peptide LPS stimulated cells [1]: 0.05 | IL1β Production [1]: 127 pg/mL | % Biofilm inhibition [2]: 0% | Fold increase in MCP1 cf. untreated cells [3]: 0.9 | MCP1 [3]: -32.5 pg/mL

1018-G3: single substituted 1018 peptide (VRGIVAVRIWRR-NH2) [Peptide 1018-G3]
Fold change in IL1β relative to no peptide LPS stimulated cells [1]: 0.57 | IL1β Production [1]: 748 pg/mL | % Biofilm inhibition [2]: 42% | Fold increase in MCP1 cf. untreated cells [3]: 1.5 | MCP1 [3]: 83 pg/mL

1018-W3: single substituted 1018 peptide (VRWIVAVRIWRR-NH2) [Peptide 1018-W3]
Fold change in IL1β relative to no peptide LPS stimulated cells [1]: 0.10 | IL1β Production [1]: 127 pg/mL | % Biofilm inhibition [2]: 66% | Fold increase in MCP1 cf. untreated cells [3]: 6.6 | MCP1 [3]: 953 pg/mL

HH2-Q10: single substituted HH2 peptide (VQLRIRVAVQRA-NH2)
Fold change in IL1β relative to no peptide LPS stimulated cells [1]: 0.90 | IL1β Production [1]: 1180 pg/mL | % Biofilm inhibition [2]: 61% | Fold increase in MCP1 cf. untreated cells [3]: 31 | MCP1 [3]: 5057 pg/mL

1002-V4: single substituted 1002 peptide (VQRVLIVWRIRK-NH2) [Peptide 1002-V4]
Fold change in IL1β relative to no peptide LPS stimulated cells [1]: 0.08 | IL1β Production [1]: 190 pg/mL | % Biofilm inhibition [2]: 69% | Fold increase in MCP1 cf. untreated cells [3]: 10.5 | MCP1 [3]: 2300.2 pg/mL

1018-V12: single substituted 1018 peptide (VRLIVAVRIWRV-NH2) [Peptide 1018-V12]
Fold change in IL1β relative to no peptide LPS stimulated cells [1]: 0.51 | IL1β Production [1]: 673 pg/mL | % Biofilm inhibition [2]: 56% | Fold increase in MCP1 cf. untreated cells [3]: 1.3 | MCP1 [3]: 56 pg/mL

1002-R4: single substituted 1002 peptide (VQRRLIVWRIRK-NH2) [Peptide 1002-R4]
Fold change in IL1β relative to no peptide LPS stimulated cells [1]: 0.34 | IL1β Production [1]: 834 pg/mL | % Biofilm inhibition [2]: 36% | Fold increase in MCP1 cf. untreated cells [3]: 0.9 | MCP1 [3]: -36.2 pg/mL

HH2-Q6: single substituted HH2 peptide (VQLRIQVAVIRA-NH2)
Fold change in IL1β relative to no peptide LPS stimulated cells [1]: 0.83 | IL1β Production [1]: 1088 pg/mL | % Biofilm inhibition [2]: 35% | Fold increase in MCP1 cf. untreated cells [3]: 191 | MCP1 [3]: 32306 pg/mL

HH2-R5: single substituted HH2 peptide (VQLRRRVAVIRA-NH2)
Fold change in IL1β relative to no peptide LPS stimulated cells [1]: 1.66 | IL1β Production [1]: 2186 pg/mL | % Biofilm inhibition [2]: 0% | Fold increase in MCP1 cf. untreated cells [3]: 4.0 | MCP1 [3]: 515 pg/mL

1002-G10: single substituted 1002 peptide (VQRWLIVWRGRK-NH2) [Peptide 1002-G10]
Fold change in IL1β relative to no peptide LPS stimulated cells [1]: 0.09 | IL1β Production [1]: 222 pg/mL | % Biofilm inhibition [2]: 35% | Fold increase in MCP1 cf. untreated cells [3]: 1.4 | MCP1 [3]: 91.3 pg/mL
